# Measured values taken from patent US11059848B2, “Artemisinic acid glycoconjugate compounds, process for preparation and use thereof” (Council of Scientific and Industrial Research, priority 2018, dated 2021).
# Like-named read-outs stand apart in the source and are kept apart here.
# Experiments:
# [1] = test system: MCF7 (breast cancer cell line); assay: Growth inhibition by MTT cytotoxicity assay, in vitro anticancer activity; type: cell-based
# Method: Compounds were dissolved in DMSO (Sigma) to prepare 50 mM concentrations stock solutions. All the further dilutions were also made in DMSO. During the treatment, the final concentration of DMSO was maintained <[…].
# Breast cancer cell line MCF7, maintained at NCCS, a national resource for providing cell lines, was grown in DMEM (GIBCO), MBA-MB-231 in RPMI (GIBCO) with 10% FBS, 100 U/mL penicillin and 100 μg/mL streptomycin and MCF10A in DMEM/F12 (Gibco) containing, horse Serum (10% final), EGF (20 ng/ml), Hydrocortisone ([…]), Cholera Toxin (100 ng/ml), Insulin (10 μg/ml) and Penicillin/Streptomycin mix (1 ml/100 ml) at 37° C. in a humid, 5% CO2 regulated incubator.
# The cytotoxic effect of the compounds was determined using MTT (3-(4, 5 dimethylthiazol-2-yl)-2-5 diphenyltetrazolium bromide) assay. Cells were seeded (4×10^3 per well) in 96 well plates. After 24 hours of seeding, cells were exposed with varying concentrations ([…]) of respective compounds for 48 hours in triplicates. Then, MTT solution (20 μL of 5 mg/mL stock for each well of 96 well plate) was added and further incubated for 3.5 hours in humid 5% CO2 incubator. Media containing MTT solution was then replaced by MTT solvent (iso-propanol, HCl and Triton X-100), incubated for 15 min at room temperature with gentle shaking for complete dissolution of Formazan. Absorbance was measured at 570 nm using a Thermo Scientific Multiskan GO Elisa plate reader and IC 50 was calculated by routine methods. All experiments were carried out at least in triplicate, and the percentage of viable cells was calculated as the mean with respect to the controls.
# [2] = Homo sapiens, MCF7 breast cancer cell line, MTT, 48 hours exposure, Table 1, read-out: IC50
# [3] = MCF7 breast cancer cell line, MTT, 48 hours exposure, table of Example 4, read-out: IC50
Compound,"IC50 [1, 2] [µM]","IC50 [1, 3] [µM]",melting point [°C],"IC50 ([1]; Homo sapiens, MCF7, MCF-7 breast cancer cell line, read-out: IC50 value, anticancer activity against MCF-7) [µM]","IC50 value less when compared with artimisinic acid ([1]; MCF7, reduction of IC50 relative to artimisinic acid)"
"C=C(C(=O)NCc1cn([C@@H]2O[C@H](COC(C)=O)[C@@H](OC(C)=O)[C@H](OC(C)=O)[C@H]2OC(C)=O)nn1)[C@@H]1CC[C@@H](C)[C@@H]2CCC(C)=C[C@@H]21 [KTK-PA-2, (2R,3R,4S,5R,6R)-2-(acetoxymethyl)-6-(4-((2-((1R,4R,4aS,8aR)-4,7-dimethyl-1,2,3,4,4a,5,6,8a-octahydronaphthalen-1-yl)acrylamido)methyl)-1H-1,2,3-triazol-1-yl)tetrahydro-2H-pyran-3,4,5-triyl triacetate]",> 100,> 100,–,–,–
"C=C(C(=O)NCc1cn([C@@H]2O[C@H](COC(=O)c3ccccc3)[C@@H](OC(=O)c3ccccc3)[C@H](OC(=O)c3ccccc3)[C@H]2OC(=O)c2ccccc2)nn1)[C@@H]1CC[C@@H](C)[C@@H]2CCC(C)=C[C@@H]21 [KTK-PA-4, (2R,3R,4S,5R,6R)-2-((benzoyloxy)methyl)-6-(4-((2-((1R,4R,4aS,8aR)-4,7-dimethyl-1,2,3,4,4a,5,6,8a-octahydronaphthalen-1-yl)acrylamido)methyl)-1H-1,2,3-triazol-1-yl)tetrahydro-2H-pyran-3,4,5-triyl tribenzoate]",> 100,> 100,–,–,–
"C=C(C(=O)OCc1cn([C@@H]2O[C@@H](C)[C@H](OC(C)=O)[C@@H](OC(C)=O)[C@H]2OC(C)=O)nn1)[C@@H]1CC[C@@H](C)[C@@H]2CCC(C)=C[C@@H]21 [KTK-AA-7, (2R,3R,4R,5S,6S)-2-(4-(((2-((1R,4R,4aS,8aR)-4,7-Dimethyl-1,2,3,4,4a,5,6,8a-octahydronaphthalen-1-yl)acryloyl)oxy)methyl)-1H-1,2,3-triazol-1-yl)-6-methyltetrahydro-2H-pyran-3,4,5-triyl triacetate]",42 ± 2,–,89 to 92,42,more than 50%
"C=C(C(=O)OCc1cn([C@@H]2O[C@H](COC(C)=O)[C@H](OC(C)=O)[C@H](OC(C)=O)[C@H]2OC(C)=O)nn1)[C@@H]1CC[C@@H](C)[C@@H]2CCC(C)=C[C@@H]21 [KTK-AA-2, (2R,3S,4S,5R,6R)-2-(acetoxymethyl)-6-(4-(((2-((1R,4R,4aS,8aR)-4,7-dimethyl-1,2,3,4,4a,5,6,8a-octahydronaphthalen-1-yl)acryloyl)oxy)methyl)-1H-1,2,3-triazol-1-yl)tetrahydro-2H-pyran-3,4,5-triyl triacetate]",> 100,> 100,–,–,–
"C=C(C(=O)NCc1cn([C@@H]2O[C@H](COC(C)=O)[C@H](OC(C)=O)[C@H](OC(C)=O)[C@H]2OC(C)=O)nn1)[C@@H]1CC[C@@H](C)[C@@H]2CCC(C)=C[C@@H]21 [KTK-PA-3, (2R,3S,4S,5R,6R)-2-(acetoxymethyl)-6-(4-((2-((1R,4R,4aS,8aR)-4,7-dimethyl-1,2,3,4,4a,5,6,8a-octahydronaphthalen-1-yl)acrylamido)methyl)-1H-1,2,3-triazol-1-yl)tetrahydro-2H-pyran-3,4,5-triyl triacetate]",> 100,> 100,–,–,–
"C=C(C(=O)OCc1cn([C@@H]2O[C@H](COC(C)=O)[C@@H](OC(C)=O)[C@H](OC(C)=O)[C@H]2OC(C)=O)nn1)[C@@H]1CC[C@@H](C)[C@@H]2CCC(C)=C[C@@H]21 [KTK-AA-4, (2R,3R,4S,5R,6R)-2-(acetoxymethyl)-6-(4-(((2-((1R,4R,4aS,8aR)-4,7-dimethyl-1,2,3,4,4a,5,6,8a-octahydronaphthalen-1-yl)acryloyl)oxy)methyl)-1H-1,2,3-triazol-1-yl)tetrahydro-2H-pyran-3,4,5-triyl triacetate]",> 100,> 100,–,–,–
"C=C(C(=O)O)[C@@H]1CC[C@@H](C)[C@@H]2CCC(C)=C[C@@H]21 [KTK-AA- Artimisinic acid, Artemisinic acid]",> 100,> 100,–,–,–
"C=C(C(=O)OCc1cn([C@@H]2O[C@H](COC(=O)c3ccccc3)[C@H](OC(=O)c3ccccc3)[C@H](OC(=O)c3ccccc3)[C@H]2OC(=O)c2ccccc2)nn1)[C@@H]1CC[C@@H](C)[C@@H]2CCC(C)=C[C@@H]21 [KTK-AA-6, (2R,3S,4S,5R,6R)-2-((benzoyloxy)methyl)-6-(4-(((2-((1R,4R,4aS,8aR)-4,7-dimethyl-1,2,3,4,4a,5,6,8a-octahydronaphthalen-1-yl)acryloyl)oxy)methyl)-1H-1,2,3-triazol-1-yl)tetrahydro-2H-pyran-3,4,5-triyl tribenzoate]",> 100,> 100,–,–,–
